Test results taken from US20060099712A1, “Correlation of anti-cancer activity of dyes with redox potentials” (Eastman Kodak Company, priority 2004, published 2006).
In brackets after ≈: the same amount, converted by molar mass. Several values for one entry are separate records, joined by “and”; a condition that tells them apart may be missing. Equal entries are not always repeated. Where two headings read alike, the source gives them in different places.

Key:
[1] = tested on: CV-1 Normal Monkey Kidney Epithelial; test: Clonogenic dye screening assay, CV-1 cells (IC50); assay type: cell-based, African green monkey; conditions: for IC50: Primates; for IC50 (concentration at which 50% of the cells of the culture are killed): cell line 1, CV-1 normal control
How it was run: (§1)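 Cells seeded 16-30 h ahead (2000 CX-1 or 1000 CV-1 per well), exposed to serially diluted dyes for 3 h at 37 °C, rinsed three times, then grown into colonies. Eight-point curves spanned 0.32-0.0015 μg/mL (CX-1) and 3.2-0.025 μg/mL (CV-1). IC50 is the concentration killing 50% of cells.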

[2] = tested on: EJ Human Bladder Carcinoma; test: Initial in vitro screening, bladder carcinoma cells; assay type: cell-based; conditions: for Selectivity: IC50 CV-1 / IC50 cell line 5 (bladder carcinoma); for IC50 / IC50 (concentration at which 50% of the cells of the culture are killed): cell line 5, EJ human bladder carcinoma, unit from method; for IC50: read-out: IC50 (concentration at which 50% of the cells of the culture are killed)
Text: (§2) Other publications have shown that some cyanine dyes show anti-cancer activity. See I. Minami, Y. Kozai, H. Nomura and T. Tashiro, Chem. Phar. Bull. 30:3106 (1982); W. M. Anderson, D. L. Delinick, L. Benninger, J. M. Wood, S. T. Smiley and L. B. Chen, Biochemical Pharmacology, 45:691 (1993). […] (See L. G. S. Brooker, L. A. Sweet, Science, 105, (1947) and I. Minami, Y. Kozai, H. Nomura, T. Tashiro, Chem. Pharm. Bull., 30,3106 (1982) on chemotherapeutic investigations of cyanine dyes.) Table I lists initial in vitro screening results in various cell lines and a comparison with Adriamycin, which is a widely used chemotherapeutic agent.
(§3) Description of Cell Line • 1. CV-1 Normal Monkey Kidney Epithelial (control) • 2. CX-1 Human Colon Carcinoma • 3. Human Breast Carcinoma • 4. Human Pancreatic Carcinoma • 5. Human Bladder Carcinoma • 6. Human Lung Carcinoma • 7. Human Squamous Cell Carcinoma • 8. Human Adrenal Cortex Carcinoma

[3] = tested on: CCL 105 Human Adrenal Cortex Carcinoma; test: Initial in vitro screening, adrenal cortex carcinoma cells; assay type: cell-based; conditions: for Selectivity: IC50 CV-1 / IC50 cell line 8 (adrenal cortex carcinoma); for IC50: read-out: IC50 (concentration at which 50% of the cells of the culture are killed)
Text: as §2, §3

[4] = tested on: CCL 185 Human Lung Carcinoma; test: Initial in vitro screening, lung carcinoma cells; assay type: cell-based; conditions: for Selectivity: IC50 CV-1 / IC50 cell line 6 (lung carcinoma); for IC50: read-out: IC50 (concentration at which 50% of the cells of the culture are killed)
Text: as §2, §3

[5] = tested on: SCC 68 Human Squamous Cell Carcinoma; test: Initial in vitro screening, squamous cell carcinoma cells; assay type: cell-based; conditions: for Selectivity: IC50 CV-1 / IC50 cell line 7 (squamous cell carcinoma); for IC50: read-out: IC50 (concentration at which 50% of the cells of the culture are killed)
Text: as §2, §3

[6] = tested on: CRL 1420 Human Pancreatic Carcinoma; test: Initial in vitro screening, pancreatic carcinoma cells; assay type: cell-based; conditions: for Selectivity: IC50 CV-1 / IC50 cell line 4 (pancreatic carcinoma); for IC50: read-out: IC50 (concentration at which 50% of the cells of the culture are killed)
Text: as §2, §3

[7] = tested on: MCF-7 Human Breast Carcinoma; test: Initial in vitro screening, breast carcinoma cells; assay type: cell-based; conditions: for Selectivity: IC50 CV-1 / IC50 cell line 3 (breast carcinoma); for IC50: MCF7, read-out: IC50 (concentration at which 50% of the cells of the culture are killed); for IC50 / IC50 (concentration at which 50% of the cells of the culture are killed): cell line 3, MCF-7 human breast carcinoma, unit from method
Text: as §2, §3

[8] = tested on: CX-1 Human Colon Carcinoma; test: Clonogenic dye screening assay, CX-1 cells (IC50); assay type: cell-based; design: CX: unit not given here; conditions: for IC50: Homo sapiens; for Selectivity: IC50 CV-1 / IC50 cell line 2 (CX-1); for CV/CX: selectivity ratio of IC50 values; for CV/CX (selectivity, kill ratio): ratio of IC50 in normal CV-1 line to IC50 in carcinoma CX-1 line; for CX (IC50 in the CX-1 cell line): 3 hrs treatment, unit from method b117-118
How it was run: as §1

[9] = CV-1, cell line 1, CV-1 normal control, unit from method, read-out: IC50 (concentration at which 50% of the cells of the culture are killed)
[10] = cell line 8, CCL 105 human adrenal cortex carcinoma, unit from method
[11] = cell line 6, CCL 185 human lung carcinoma, unit from method
[12] = cell line 7, SCC 68 human squamous cell carcinoma, unit from method
[13] = cell line 4, CRL 1420 human pancreatic carcinoma, unit from method
[14] = CX-1, cell line 2, CX-1, unit from method, read-out: IC50 (concentration at which 50% of the cells of the culture are killed)
[15] = CV-1, Table XIX, CV-1 cells, read-out: CV
[16] = CX-1, Table XIX, CX-1 cells, read-out: CX

COc1cccc2c1C(=O)c1c(O)c3c(c(O)c1C2=O)C[C@@](O)(C(=O)CO)C[C@@H]3O[C@H]1C[C@H](N)[C@H](O)[C@H](C)O1 [Adriamycin, reference compound]
IC50 [1, 9]: 0.8 µg/mL (≈ 1.47 µM) | Selectivity [2]: 8 | IC50 [2]: 0.1 µg/mL (≈ 0.184 µM) | Selectivity [3]: 16 | IC50 [3, 10]: 0.05 µg/mL (≈ 0.092 µM) | Selectivity [4]: 11 | IC50 [4, 11]: 0.07 µg/mL (≈ 0.129 µM) | Selectivity [5]: 10 | IC50 [5, 12]: 0.08 µg/mL (≈ 0.147 µM) | Selectivity [6]: 13 | IC50 [6, 13]: 0.06 µg/mL (≈ 0.11 µM) | Selectivity [7]: 16 | IC50 [7]: 0.05 µg/mL (≈ 0.092 µM) | IC50 [8, 14]: 0.55 µg/mL (≈ 1.01 µM) | Selectivity [8]: 1.5

CCN1C(=CC=Cc2sc3cc4ccccc4cc3[n+]2CC)Sc2cc3ccccc3cc21 [AC-2]
IC50 (concentration at which 50% of the cells of the culture are killed) ([1]; unit from method): 0.30 µg/mL | Selectivity [2]: >60 | IC50 (concentration at which 50% of the cells of the culture are killed) [2]: <.005 µg/mL | Selectivity [3]: >60 | IC50 (concentration at which 50% of the cells of the culture are killed) [3, 10]: <.005 µg/mL | Selectivity [4]: >60 | IC50 (concentration at which 50% of the cells of the culture are killed) [4, 11]: <.005 µg/mL | Selectivity [5]: >60 | IC50 (concentration at which 50% of the cells of the culture are killed) [5, 12]: <.005 µg/mL | Selectivity [6]: >60 | IC50 (concentration at which 50% of the cells of the culture are killed) [6, 13]: <.005 µg/mL | Selectivity [7]: >60 | IC50 (concentration at which 50% of the cells of the culture are killed) [7]: <.005 µg/mL | Selectivity [8]: >60 | IC50 (concentration at which 50% of the cells of the culture are killed) ([8]; cell line 2, CX-1, unit from method): <.005 µg/mL

CCN1/C(=C\C=C\C2=[N+](CC)c3ccccc3C2(C)C)C(C)(C)c2ccccc21 [Dye D-103]
IC50 ([1]; CV-1, read-out: CV): 5 µg/mL | IC50 ([1]; CV-1, read-out: CV (IC50 in the CV-1 cell line)): 5 µg/mL | IC50 ([8]; CX-1, read-out: CX): 0.01 µg/mL | IC50 ([8]; CX-1, read-out: CX (IC50 in the CX-1 cell line)): 0.01 µg/mL | CV/CX ([8]; Table XIX): 500.000 | CV/CX ([8]; Table XV): 500.0 | CV/CX (selectivity, kill ratio) [8]: 500

CCN1/C(=C/C=C/c2sc3cc4ccccc4cc3[n+]2CC)Sc2cc3ccccc3cc21 [Dye D-109]
IC50 [1, 15]: 0.3 µg/mL | CX (IC50 in the CX-1 cell line) ([8]; colonies after 7-10 days): <0.005 µg/mL | IC50 [8, 16]: 0.004 µg/mL | CV/CX ([8]; Table XIX): 75.000 | CV/CX (selectivity, kill ratio) [8]: 60 and >60.0

CCN1C(=CC=Cc2sc3cc4ccccc4nc3[n+]2CC)Sc2cc3ccccc3nc21 [Dye D-150]
IC50 ([1]; CV-1, 3 hrs treatment, colonies after 7-10 days, unit from method, read-out: CV (IC50 in the CV-1 cell line)): 3 µg/mL | IC50 [1, 15]: 3 µg/mL | IC50 [1, 9]: 3 µg/mL | Selectivity [2]: 300 | IC50 [2]: 0.01 µg/mL | Selectivity [3]: 300 | IC50 [3, 10]: 0.01 µg/mL | Selectivity [4]: 150 | IC50 [4, 11]: 0.02 µg/mL | Selectivity [5]: 30 | IC50 [5, 12]: 0.1 µg/mL | Selectivity [6]: 100 | IC50 [6, 13]: 0.03 µg/mL | Selectivity [7]: 100 | IC50 [7]: 0.03 µg/mL | IC50 ([8]; CX-1, 3 hrs treatment, colonies after 7-10 days, unit from method, read-out: CX (IC50 in the CX-1 cell line)): 0.03 µg/mL | IC50 [8, 16]: 0.03 µg/mL | IC50 [8, 14]: 0.03 µg/mL | Selectivity [8]: 100 | CV/CX ([8]; Table XIX): 100.000 | CV/CX (selectivity, kill ratio) [8]: 100

CCN1/C(=C/C=C/c2sc3cc4ccccc4cc3[n+]2CC)Sc2cc3ccccc3cc21 [Dye D-160]
IC50 [1, 9]: 0.3 µg/mL | IC50 [2]: < 0.005 µg/mL | IC50 [3, 10]: < 0.005 µg/mL | IC50 [4, 11]: < 0.005 µg/mL | IC50 [5, 12]: < 0.005 µg/mL | IC50 [6, 13]: < 0.005 µg/mL | IC50 [7]: < 0.005 µg/mL | CX (IC50 in the CX-1 cell line) ([8]; colonies after 7-10 days): 0.05 µg/mL | IC50 [8, 14]: < 0.005 µg/mL | CX ([8]; Table XIX, CX-1 cells): 0.004 | CV/CX ([8]; Table XIX): 75.000 | CV/CX (selectivity, kill ratio) [8]: 100

CCN1/C(=C/C=C/c2sc3ccccc3[n+]2CC)Sc2ccccc21.[I-] [Dye D-101]
IC50 (concentration at which 50% of the cells of the culture are killed) ([1]; unit from method): 0.5 µg/mL and 0.50 µg/mL | Selectivity [2]: >100 | IC50 (concentration at which 50% of the cells of the culture are killed) [2]: <0.005 µg/mL | Selectivity [3]: >100 | Selectivity [4]: 50 | Selectivity [5]: 13.3 | Selectivity [6]: 100 | Selectivity [7]: 13.3 | IC50 (concentration at which 50% of the cells of the culture are killed) [7]: 0.03 µg/mL | CX (IC50 in the CX-1 cell line) ([8]; colonies after 7-10 days): <0.005 µg/mL | Selectivity [8]: 100 | CX ([8]; Table XIX, CX-1 cells): 0.004 | CV/CX ([8]; Table XIX): 100.000 and 75.000 | CV/CX ([8]; Table XV): 100.0 | CV/CX (selectivity, kill ratio) [8]: 100 and >100.0
